Values quoted from earlier work in patent US3981916A, “Reduction of nitroparaffin substrates to their corresponding oximes using a silver salt catalyst” (priority 1970, dated 1976).

Details: 25°C, aqueous solution; literature values (Table I)

Structure (SMILES)	pKa (First Acid Dissociation Constant)
NCCNCCNCCN [Triethylenetetramine]	9.92
CN(C)C(=N)N(C)C [Tetramethylguanidine]	11.50
NCCN [Ethylenediamine]	9.98

Same assay, conditions: water

Structure (SMILES)	pKa (First Acid Dissociation Constant)
CN(C)CCN(C)C [N,N,N,N',-Tetramethyl-ethylenediamine]	5.85
NCCCCCCN [1,6-diaminohexane]	11.1
NCCCNCCCN [3,3'-iminobispropylamine]	10.70
NCCNCCNCCNCCN [Tetraethylenepentamine]	9.9
NCCCN [1,3-diaminopropane]	10.54
OCCNCCO [Diethanolamine]	9.35

The remaining lines, values ahead:

pKa (First Acid Dissociation Constant)	Structure (SMILES)
10.40	CCCCCCN [n-Hexylamine]
10.59	CCCCN [n-Butylamine]
